Data reported in PubChem BioAssay AID1963833 (Molecular Pharmacology Branch, DTP, NCI, 2024).

System: 883617-216-R-J1-PDC complex spheroid viability
Assay: Anticancer human tumor 883617-216-R-J1-PDC patient-derived bladder carcinoma cell line growth inhibition [POLQ]
Conditions: for IC50: curve of first compound; for viability, T/C: stronger effect = lower value
In short: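 Patient-derived tumour cells were co-cultured with HUVEC and mesenchymal stem cells as multicellular spheroids at 37 °C. They were treated with POLQ inhibitors (novobiocin, ART-558, RP6685) alone or combined with other agents. Top concentrations were at or near clinical Cmax (otherwise 10 microM; SN-38 at 1 microM), decreasing in half-log steps.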
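Also: spheroids exposed to compounds for seven days before readout.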
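For viability, T/C in this document: 100% = DMSO vehicle control viability.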

Compound: C=CCn1c(=O)c2cnc(Nc3ccc(N4CCN(C)CC4)cc3)nc2n1-c1cccc(C(C)(C)O)n1 + COC1C(OC(N)=O)C(O)C(Oc2ccc3c(O)c(NC(=O)c4ccc(O)c(CC=C(C)C)c4)c(=O)oc3c2C)OC1(C)C
- IC50 (second compound 0.0316 µM): 916 nM
- IC50 (second compound 0.1 µM): 811 nM
- IC50 (second compound 0.316 µM): 945 nM
- IC50 (second compound 1 µM): 889 nM
- IC50 (second compound 3.16 µM): 883 nM
- IC50 (second compound 10 µM): 820 nM
- viability, T/C (second compound 0.0316 µM, first compound 0.00316 µM): 113%
- viability, T/C (second compound 0.0316 µM, first compound 0.01 µM): 97.9%
- viability, T/C (second compound 0.0316 µM, first compound 0.0316 µM): 112%
- viability, T/C (second compound 0.0316 µM, first compound 0.1 µM): 94.7%
- viability, T/C (second compound 0.0316 µM, first compound 0.316 µM): 84.6%
- viability, T/C (second compound 0.0316 µM, first compound 1 µM): 47%
- viability, T/C (second compound 0.1 µM, first compound 0.00316 µM): 101%
- viability, T/C (second compound 0.1 µM, first compound 0.01 µM): 91.9%
- viability, T/C (second compound 0.1 µM, first compound 0.0316 µM): 98.9%
- viability, T/C (second compound 0.1 µM, first compound 0.1 µM): 120%
- viability, T/C (second compound 0.1 µM, first compound 0.316 µM): 85.9%
- viability, T/C (second compound 0.1 µM, first compound 1 µM): 42%
- viability, T/C (second compound 0.316 µM, first compound 0.00316 µM): 121%
- viability, T/C (second compound 0.316 µM, first compound 0.01 µM): 99.8%
- viability, T/C (second compound 0.316 µM, first compound 0.0316 µM): 104%
- viability, T/C (second compound 0.316 µM, first compound 0.1 µM): 107%
- viability, T/C (second compound 0.316 µM, first compound 0.316 µM): 77.8%
- viability, T/C (second compound 0.316 µM, first compound 1 µM): 48.6%
- viability, T/C (second compound 1 µM, first compound 0.00316 µM): 103%
- viability, T/C (second compound 1 µM, first compound 0.01 µM): 95.2%
- viability, T/C (second compound 1 µM, first compound 0.0316 µM): 105%
- viability, T/C (second compound 1 µM, first compound 0.1 µM): 112%
- viability, T/C (second compound 1 µM, first compound 0.316 µM): 92.2%
- viability, T/C (second compound 1 µM, first compound 1 µM): 45.2%
- viability, T/C (second compound 3.16 µM, first compound 0.00316 µM): 106%
- viability, T/C (second compound 3.16 µM, first compound 0.01 µM): 101%
- viability, T/C (second compound 3.16 µM, first compound 0.0316 µM): 98.6%
- viability, T/C (second compound 3.16 µM, first compound 0.1 µM): 104%
- viability, T/C (second compound 3.16 µM, first compound 0.316 µM): 90%
- viability, T/C (second compound 3.16 µM, first compound 1 µM): 44.8%
- viability, T/C (second compound 10 µM, first compound 0.00316 µM): 104%
- viability, T/C (second compound 10 µM, first compound 0.01 µM): 87.1%
- viability, T/C (second compound 10 µM, first compound 0.0316 µM): 105%
- viability, T/C (second compound 10 µM, first compound 0.1 µM): 91.6%
- viability, T/C (second compound 10 µM, first compound 0.316 µM): 84%
- viability, T/C (second compound 10 µM, first compound 1 µM): 42.8%
